Experimental data from article PMC9977398, “Next-generation membrane-active glycopeptide antibiotics that also inhibit bacterial cell division” (Chemical Science, 2023).

Tests used:
[1] = tested on: VRSA 12 (vancomycin-resistant S. aureus); design: method as in PMID 32195571; conditions: previously reported; cited from earlier work
[2] = tested on: GFP-FtsZ expressing E. coli; experiment: GFP-FtsZ localization and morphology; format: cell-based; conditions: 15 μM
Protocol: The FtsZ protein assembles into a membrane-associated ring structure at the division septum. It recruits other proteins for the progression and completion of cell division.[34] The effect of VanQAmC10 on the localization of FtsZ and morphology in E. coli producing green fluorescent protein (GFP)-tagged FtsZ was studied through microscopy (Fig. 5B). The cells were treated with IPTG to overexpress gfp-ftsZ and then either treated with compounds or left untreated. Upon treatment with 15 μM of VanQAmC10, the cells appear to be filamentous with variable lengths of up to 4 μm, while cells in the control group were ∼2.5 μm long. Incubation with VanQAmC10 for a longer time (130 minutes) results in bulkier filamentous cells, with severely distorted shapes (Fig. S4 ^†). […] IPTG-treated cells formed minicells of ∼1.5 μm length, which is characteristic of cells overproducing FtsZ.[35] Known inhibitors of FtsZ alter the regular midcell distribution of Z-rings.[36] […]
resuspended in prewarmed BMM media. […] The fluorescence in the GFP and Texas red channels was then observed under the microscope. […]
About 6 μl of sample was immobilized on 1% agarose pad . DIC and fluorescence images were obtained at different time intervals using Nikon Eclipse Ti Microscope equipped with Nikon DS-U3 camera through Plan Apo 100×/1.40 oil objective. […]

RAW 264.7 cells = tested on: RAW 264.7 cells; design: method as in PMID 32195571; conditions: cited from earlier work
[3] = tested on: VRSA 1 (vancomycin-resistant S. aureus); design: method as in PMID 32195571; conditions: previously reported; cited from earlier work
E. coli = experiment: MIC against E. coli; format: cell-based; conditions: Escherichia coli

SMILES: CCCCCCCCCCNC(=O)C[N+](C)(C)CCCNC(=O)C1NC(=O)C2NC(=O)C(NC(=O)C3NC(=O)C(CC(N)=O)NC(=O)C(NC(=O)C(CC(C)C)NC)C(O)c4ccc(c(Cl)c4)Oc4cc3cc(c4OC3OC(CO)C(O)C(O)C3OC3CC(C)(N)C(O)C(C)O3)Oc3ccc(cc3Cl)C2O)c2ccc(O)c(c2)-c2c(O)cc(O)cc21 (stereo not drawn) [VanQAmC10 (8)]
- Minimum inhibitory concentration, VRSA 12 [1]: 1.6 µM
- localization and distribution of Z-rings [2]: remain unaltered
- length of filamentous cells ([2]; 40 min, control cells ∼2.5 μm): up to 4 μm
- concentration up to which non-toxic (RAW 264.7 cells): 40 µM
- Minimum inhibitory concentration, VRSA 1 [3]: 3.1 µM
- MIC (E. coli): 16 µM
